Measurements as given in paper PMC10964233, “Antigen-Mimic Nanoparticles in Ultrasensitive on-Chip Integrated Anti-p53 Antibody Quantification” (ACS Sensors, 2024).
Each block holds one substance with its values, some of them ahead of it.

Experiments:
[1] = test system: Con A-modified electrode interfaces; experiment: Antibody selectivity of Con A-modified electrode interfaces; format: binding; conditions: 1.0 mg/mL nonspecific protein; Figure S7
[2] = test system: DO-1 peptide/HRP-IONPs with Con A-modified SPCEs; experiment: Assay specificity (SWV responses of interferents); conditions: equivalent MAC immunoisolation conditions, Figure S17
Experimental: Following a 10 min incubation of the antibody–IONP immunocomplexes on Con A-modified SPCEs, and subsequent washing with PBS, 100 μL of the high-sensitivity TMB substrate was added and left to react for 5 min. Square-wave voltammetry (SWV) scans were then conducted from +1.0 to −0.5 V (vs Ag/AgCl), at an amplitude of 20 mV, a potential step of 2 mV, and a frequency of 50 Hz. […] Recovery assays were conducted using DO-1 antibodies spiked into 1.0 mg/mL BSA or 1.0% human serum (human male AB plasma, Sigma, UK).
To evaluate the performance in spiked samples, recovery tests were performed in 1.0 mg/mL BSA and diluted human serum.

Concanavalin A = experiment: SPR + other: electrochemical impedance spectroscopy; SPR at Con A-saturated gold chips with a BSA-saturated surface as reference (298 K, 30 uL/min, 10 mM PBS pH 7.4); EIS at Con A-modified SPCEs in 5 mM [Fe(CN)6]3-/4- PBS pH 7.4; both responses fitted to Langmuir-Freundlich isotherms, Kd from the plot mean

Substance: bovine serum albumin [BSA]
- Response at Con A interface relative to DO-1 antibody [1]: < 10%
- Voltammetric response relative to 50 ng/mL DO-1 antibody ([2]; 1.0 mg/mL): < 10%

Substance: immunoglobulin G
- Voltammetric response relative to 50 ng/mL DO-1 antibody ([2]; 10.0 μg/mL (antibody control)): < 10%

- Kd (Concanavalin A): 13.6 nM
Substance: monoclonal DO-1 antibody
